# Source: patent EP4631938A1, “NITROGEN-CONTAINING HETEROCYCLE WITH SEROTONIN RECEPTOR-BINDING ACTIVITY AND CARBOCYCLIC DERIVATIVE” (Shionogi & Co., Ltd, priority 2022, dated 2024)
# pKi: −log10 of the molar value.
# Columns and labels:
# [1] = target: T1, human recombinant 5-HT2A receptor (Homo sapiens, UniProt P28223); test: Test Example 1-2: 5-HT2A receptor binding inhibition test ([3H]-Ketanserin; non-specific ligand Ketanserin); conditions: [3H]-Ketanserin; non-specific binding with 500 µmol/L Ketanserin; room temperature (25°C), 1.5 hours; read-out: h 5-HT2A Ki
# T1 construct: expressed in transfected cells; host or cells: Jump-In HEK cells (membrane preparation)
# Procedure, shortened: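 Membranes expressing the receptor were incubated with [3H]-ketanserin and compound for 1.5 h at 25 °C, then filtered onto plates presoaked in 50 mmol/L Tris-HCl pH 7.4 and scintillation-counted. Non-specific binding was defined with 500 µmol/L unlabeled ketanserin. Ki was taken from dose-response curves, with Kd set for each membrane lot by Scatchard analysis.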
# [2] = target: T2, human recombinant 5-HT2C receptor (Homo sapiens, UniProt P28335); test: Test Example 2: 5-HT2C receptor binding inhibition test ([3H]-Mesulergine; non-specific ligand Serotonin HCl); conditions: human serotonin 5-HT2C receptor binding activity
# T2 construct: expressed in transfected cells; host or cells: Jump-In HEK cells (membrane preparation)
# T2 sequence (P28335 33-458): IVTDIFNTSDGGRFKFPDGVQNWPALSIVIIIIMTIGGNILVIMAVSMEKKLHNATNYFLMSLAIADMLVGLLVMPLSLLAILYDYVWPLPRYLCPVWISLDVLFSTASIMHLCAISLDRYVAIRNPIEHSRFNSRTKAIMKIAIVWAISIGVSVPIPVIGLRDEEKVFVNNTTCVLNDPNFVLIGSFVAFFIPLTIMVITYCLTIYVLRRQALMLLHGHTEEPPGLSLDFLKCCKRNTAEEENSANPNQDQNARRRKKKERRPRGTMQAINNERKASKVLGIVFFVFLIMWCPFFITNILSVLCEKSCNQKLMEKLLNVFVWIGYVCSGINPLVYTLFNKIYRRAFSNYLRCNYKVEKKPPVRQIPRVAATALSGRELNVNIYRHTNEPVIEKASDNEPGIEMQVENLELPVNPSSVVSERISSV
# Procedure, shortened: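 Filtration binding to membranes bearing human 5-HT2C with [3H]-mesulergine, 2 h at 37°C; non-specific binding defined with 500 µmol/L serotonin HCl, total binding with vehicle. Inhibition rate computed from cpm; Ki derived from dose-response curve, with ligand Kd from Scatchard analysis of saturation binding.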
# T1 sequence (P28223 whole entry): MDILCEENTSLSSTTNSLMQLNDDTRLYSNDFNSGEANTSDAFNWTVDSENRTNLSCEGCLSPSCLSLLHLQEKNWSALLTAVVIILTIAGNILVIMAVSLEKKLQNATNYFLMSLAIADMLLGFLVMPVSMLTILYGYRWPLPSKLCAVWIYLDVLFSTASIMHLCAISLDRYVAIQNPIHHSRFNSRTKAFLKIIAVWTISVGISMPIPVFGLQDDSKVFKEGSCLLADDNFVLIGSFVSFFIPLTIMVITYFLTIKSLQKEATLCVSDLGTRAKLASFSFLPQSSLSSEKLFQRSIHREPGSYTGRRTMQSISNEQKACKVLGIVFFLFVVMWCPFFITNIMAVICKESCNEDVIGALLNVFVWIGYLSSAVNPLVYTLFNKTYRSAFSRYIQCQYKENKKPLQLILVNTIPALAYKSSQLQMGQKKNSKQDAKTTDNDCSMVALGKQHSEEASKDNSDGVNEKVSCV
Structure (SMILES),pKi [1],pKi [2]
Cc1nc(C2COC2)nc(C)c1-c1cc(Nc2ncc(C(F)(F)F)cc2Cl)ncc1OCCO [Compound I-207],8.65,8.22
Cc1nc(C)c(-c2cc(Nc3cc(OC(F)F)c(Cl)cn3)ncc2OCCO)c(C)n1 [Compound I-302],8.97,8.21
Cn1ncc(Br)c1-c1cc(Nc2nc3ccc(F)cc3s2)c(Cl)cc1OCCO [Compound I-408],9.42,8.72
Cn1ncc(Cl)c1-c1cc(Nc2ncc(C(F)(F)F)cn2)ncc1OCCO [Compound I-311],9.36,8.19
Cc1cnn(C)c1-c1cc(Nc2ncc(OC(F)F)cc2F)ncc1OCCO [Compound I-178],9.41,8.48
Cn1ncc(Br)c1-c1cc(Nc2ncc(F)cn2)c(F)cc1OCCO [Compound I-165],9.41,8.01
Cn1ncc(Br)c1-c1nc(Nc2ccc(Cl)c(F)c2)ncc1OCCO [Compound I-345],9.59,8.51
Cn1ncc(Br)c1-c1nc(Nc2ccc(C(F)(F)F)cc2)c(F)cc1OCCO [Compound I-276],9.87,9.57
Cn1ncc(Br)c1-c1cc(Nc2ncc(Cl)cn2)ncc1OCCO [Compound I-274],9.66,8.35
CNC(=O)c1ccc(F)c(-c2cc(Nc3ncc(C(F)(F)F)cc3F)ncc2OCCO)c1 [Compound I-391],9.45,7.72
COCc1nc(C)c(-c2nc(Nc3cc(-c4ccccc4)no3)c(F)cc2OCCO)c(C)n1 [Compound I-393],7.75,7.10
Cn1ncc(Br)c1-c1nc(Nc2ccc(Cl)cn2)c(F)cc1OCCO [Compound I-278],9.69,8.45
Cn1ncc(Br)c1-c1cc(Nc2nc3ccc(F)cc3s2)c(F)cc1OCCO [Compound I-405],9.56,9.53
COCC(F)(F)COc1nc(C)c(-c2cc(Nc3ncc(C(F)(F)F)cc3Cl)ncc2OCCO)c(C)n1 [Compound I-218],8.91,8.47
Cc1nc(C)c(-c2cc(Nc3ccc(Cl)cn3)c(F)cc2OCCO)c(C)n1 [Compound I-167],9.29,8.27
Cc1nc(OCC2COC2)nc(C)c1-c1cc(Nc2ncc(C(F)(F)F)cc2Cl)ncc1OCCO [Compound I-219],8.90,8.20
COCc1nc(C)c(-c2nc(Nc3ccc(-c4ccc(C(F)(F)F)nc4)cn3)c(F)cc2OCCO)c(C)n1 [Compound I-365],8.33,8.70
Cc1cnn(C)c1-c1cc(Nc2ncc(OC(F)(F)F)cc2F)ncc1OCCO [Compound I-292],9.41,8.62
COCc1nc(C)c(-c2cc(Nc3ncc(OC(F)(F)F)cc3C)ncc2OCCO)c(C)n1 [Compound I-186],8.76,8.76
Cc1nc(OC2COC2)nc(C)c1-c1cc(Nc2ncc(C(F)(F)F)cc2Cl)ncc1OCCO [Compound I-220],8.86,8.23
Cc1nc(C)c(-c2cc(Nc3ccc(-c4ccc(C(F)(F)F)nc4)cn3)ncc2OCCO)c(C)n1 [Compound I-315],8.92,8.98
O=C1OCc2c1cccc2-c1cc(Nc2ncc(C(F)(F)F)cc2F)ncc1OCCO [Compound I-360],8.91,7.26
COCc1nc(C)c(-c2cc(Nc3ncc(C(F)(F)F)cc3Cl)ncc2OCCO)c(C)n1 [Compound I-201],8.65,8.60
